Consider 1 molecule from patent publication US9254291B2, “Modulators of ATP-binding cassette transporters” (VERTEX PHARMACEUTICALS INCORPORATED, priority 2011, dated 2016).

The assay has as its target T1, ΔF508-CFTR (Homo sapiens, UniProt P13569, DEL508-508).
T1 construct: expressed in transfected cells
As to the kind of experiment: Membrane potential optical assay for ΔF508-CFTR correction properties of compounds. The assay is classed as cell-based. The note with it: ΔF508-CFTR in NIH3T3 mouse fibroblasts; test behind Table 2 not named. An excerpt: Assays for Detecting and Measuring ΔF508-CFTR Correction Properties of Compounds
Membrane potential optical methods for assaying ΔF508-CFTR modulation properties of compounds.
The assay utilizes fluorescent voltage sensing dyes to measure changes in membrane potential using a fluorescent plate reader (e.g., FLIPR III, Molecular Devices, Inc.) as a readout for increase in functional ΔF508-CFTR in NIH 3T3 cells. The driving force for the response is the creation of a chloride ion gradient in conjunction with channel activation by a single liquid addition step after the cells have previously been treated with compounds and subsequently loaded with a voltage sensing dye.
Identification of Correction Compounds
To identify small molecules that correct the trafficking defect associated with ΔF508-CFTR; a single-addition HTS assay format was developed. […] Cells are then ready for compound exposure after adhering to the bottom of the assay plates.
The cells were incubated in serum-free medium for 16-24 hrs in tissue culture incubator at 37° C., 5% CO2, 90% humidity in the presence or absence (negative control) of test compound. […] The addition of Cl^−-free medium promoted Cl^− efflux in response to ΔF508-CFTR activation and the resulting membrane depolarization was optically monitored using voltage sensor dyes. […]

T1 sequence (P13569 with tags, fused parts or gaps DEL508-508): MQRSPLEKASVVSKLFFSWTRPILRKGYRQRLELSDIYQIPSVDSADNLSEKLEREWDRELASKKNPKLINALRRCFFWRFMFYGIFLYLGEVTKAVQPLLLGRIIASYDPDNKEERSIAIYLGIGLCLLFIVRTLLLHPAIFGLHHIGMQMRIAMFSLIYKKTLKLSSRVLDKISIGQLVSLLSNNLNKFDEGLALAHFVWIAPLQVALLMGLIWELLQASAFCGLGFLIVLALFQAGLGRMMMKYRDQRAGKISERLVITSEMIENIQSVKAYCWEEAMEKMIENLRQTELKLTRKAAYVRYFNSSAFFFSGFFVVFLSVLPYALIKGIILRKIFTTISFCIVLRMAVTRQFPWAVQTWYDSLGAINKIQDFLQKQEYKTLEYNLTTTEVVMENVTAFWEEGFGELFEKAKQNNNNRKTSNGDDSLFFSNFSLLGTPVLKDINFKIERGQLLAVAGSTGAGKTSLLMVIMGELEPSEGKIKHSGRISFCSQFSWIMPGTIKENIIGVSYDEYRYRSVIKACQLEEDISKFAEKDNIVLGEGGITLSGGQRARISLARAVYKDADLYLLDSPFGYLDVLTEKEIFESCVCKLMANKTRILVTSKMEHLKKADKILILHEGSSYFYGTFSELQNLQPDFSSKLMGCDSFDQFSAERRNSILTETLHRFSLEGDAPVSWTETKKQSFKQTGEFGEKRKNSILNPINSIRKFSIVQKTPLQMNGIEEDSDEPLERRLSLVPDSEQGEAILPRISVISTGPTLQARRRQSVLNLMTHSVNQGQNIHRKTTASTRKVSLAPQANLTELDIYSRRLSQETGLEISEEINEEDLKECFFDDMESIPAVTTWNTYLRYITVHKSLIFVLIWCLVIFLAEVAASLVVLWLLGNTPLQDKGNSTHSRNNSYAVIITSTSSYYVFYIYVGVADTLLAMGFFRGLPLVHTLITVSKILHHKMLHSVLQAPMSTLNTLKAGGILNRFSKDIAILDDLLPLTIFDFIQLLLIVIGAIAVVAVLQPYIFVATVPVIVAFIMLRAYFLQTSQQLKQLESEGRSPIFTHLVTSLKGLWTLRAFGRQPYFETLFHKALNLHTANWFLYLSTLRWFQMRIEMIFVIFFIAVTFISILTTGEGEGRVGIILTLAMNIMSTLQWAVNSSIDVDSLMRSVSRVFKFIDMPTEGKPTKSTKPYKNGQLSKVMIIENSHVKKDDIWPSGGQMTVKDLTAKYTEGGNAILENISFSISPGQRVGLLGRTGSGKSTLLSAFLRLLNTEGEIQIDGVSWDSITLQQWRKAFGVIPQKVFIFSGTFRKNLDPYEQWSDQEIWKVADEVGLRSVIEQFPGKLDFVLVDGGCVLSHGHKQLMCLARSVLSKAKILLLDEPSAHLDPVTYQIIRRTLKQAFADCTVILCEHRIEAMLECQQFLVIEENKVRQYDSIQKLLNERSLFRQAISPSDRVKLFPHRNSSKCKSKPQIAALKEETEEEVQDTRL

Usually EC50 stands for the concentration at which the effect is half-maximal. Regarding `CC1(C)c2cc3cc(NC(=O)C4(c5ccc6c(c5)OC(F)(F)O6)CC4)c(F)cc3n2C[C@H](CO)OC1O` (stereo partly drawn) [1-(2,2-difluorobenzo[d][1,3]dioxol-5-yl)-N-((4R)-8-fluoro-2-hydroxy-4-(hydroxymethyl)-1,1-dimethyl-1,2,4,5-tetrahydro-[1,4]oxazepino[4,5-a]indol-9-yl)cyclopropanecarboxamide], the EC50 is under 2000 nM.
